# According to paper PMC10247784, “Physiological activation of human and mouse bitter taste receptors by bile acids” (Communications Biology, 2023):
# Several values for one entry are separate records, joined by “and”; a condition that tells them apart may be missing. Equal values may be shown once.
# Molecular target: T1, human TAS2R4 (Homo sapiens, UniProt Q9NYW5)
# T1 construct: expressed in transfected cells; host or cells: HEK293T-Gα16gust44
# T1 sequence (Q9NYW5 1-299): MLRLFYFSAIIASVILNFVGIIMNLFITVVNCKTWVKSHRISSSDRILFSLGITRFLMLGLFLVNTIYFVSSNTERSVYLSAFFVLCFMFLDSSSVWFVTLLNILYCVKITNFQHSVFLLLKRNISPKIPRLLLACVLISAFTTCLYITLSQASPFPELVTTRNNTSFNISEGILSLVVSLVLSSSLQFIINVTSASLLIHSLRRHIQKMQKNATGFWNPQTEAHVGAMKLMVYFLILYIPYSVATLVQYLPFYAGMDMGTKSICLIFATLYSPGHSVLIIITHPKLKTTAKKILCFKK
# Experiment: Calcium imaging assay (FLIPR), HEK293T-Gα16gust44 cells transfected with human TAS2R4
# Type: cell-based
# Procedure, shortened: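 Fluo-4 calcium responses; ΔF/F corrected for mock transfection and buffer control; triplicate independent dose-response runs; p < 0.01 threshold.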
smiles,measurement,setting,value
"C[C@H](CCC(=O)NCCS(=O)(=O)O)[C@H]1CC[C@H]2[C@@H]3CC[C@@H]4C[C@H](O)CC[C@]4(C)[C@H]3CC[C@]12C [Taurolithocholic Acid, taurolithocholic acid]",Efficacy = maximal amplitude (ΔF/F),"TAS2R4, bile acids, mean",0.1385
same,"Efficacy (maximal amplitude ΔF/F), individual data points","TAS2R4, bile acids, single replicates, listed as TLCA",0.1344 and 0.1516 and 0.119 and 0.1444 and 0.143
same,"RLU, fluorescence trace",Time (s) 0,0 RLU
same,"RLU, fluorescence trace",Time (s) 2,-14.866 RLU
same,"RLU, fluorescence trace",Time (s) 4,-10.9022 RLU
same,"RLU, fluorescence trace",Time (s) 6,-0.9261 RLU
same,"RLU, fluorescence trace",Time (s) 8,-7.834 RLU
same,"RLU, fluorescence trace",Time (s) 12,-12.8379 RLU
same,"RLU, fluorescence trace",Time (s) 14,6.067 RLU
same,"RLU, fluorescence trace",Time (s) 16,3.969 RLU
same,"RLU, fluorescence trace",Time (s) 18,-13.8081 RLU
same,"RLU, fluorescence trace","Time (s) 18.766 (TCA, TLCA: 18.782)",-6.318 RLU
same,"RLU, fluorescence trace","Time (s) 20.781 (TCA, TLCA: 20.782)",0.7554 RLU
same,"RLU, fluorescence trace","Time (s) 22.781 (TCA, TLCA: 22.782)",22.9324 RLU
same,"RLU, fluorescence trace","Time (s) 24.781 (TCA, TLCA: 24.782)",4.9 RLU
same,"RLU, fluorescence trace","Time (s) 26.781 (TCA, TLCA: 26.782)",24.977 RLU
same,"RLU, fluorescence trace","Time (s) 28.781 (TCA, TLCA: 28.782)",22.993 RLU
same,"RLU, fluorescence trace","Time (s) 30.781 (TCA, TLCA: 30.782)",49.0114 RLU
same,"RLU, fluorescence trace","Time (s) 32.781 (TCA, TLCA: 32.782)",81.1426 RLU
same,"RLU, fluorescence trace","Time (s) 34.781 (TCA, TLCA: 34.782)",109.126 RLU
same,"RLU, fluorescence trace","Time (s) 36.781 (TCA, TLCA: 36.782)",126.942 RLU
same,"RLU, fluorescence trace","Time (s) 38.781 (TCA, TLCA: 38.782)",159.412 RLU
same,"RLU, fluorescence trace","Time (s) 40.781 (TCA, TLCA: 40.782)",175 RLU
same,"RLU, fluorescence trace","Time (s) 42.781 (TCA, TLCA: 42.782)",193.772 RLU
same,"RLU, fluorescence trace","Time (s) 44.781 (TCA, TLCA: 44.782)",218.413 RLU
same,"RLU, fluorescence trace","Time (s) 46.781 (TCA, TLCA: 46.782)",198.067 RLU
same,"RLU, fluorescence trace","Time (s) 48.781 (TCA, TLCA: 48.782)",224.737 RLU
same,"RLU, fluorescence trace","Time (s) 50.781 (TCA, TLCA: 50.782)",242.508 RLU
same,"RLU, fluorescence trace","Time (s) 52.781 (TCA, TLCA: 52.782)",256.995 RLU
same,"RLU, fluorescence trace","Time (s) 54.781 (TCA, TLCA: 54.782)",227.079 RLU
same,"RLU, fluorescence trace","Time (s) 56.781 (TCA, TLCA: 56.782)",225.961 RLU
same,"RLU, fluorescence trace","Time (s) 58.781 (TCA, TLCA: 58.782)",271.056 RLU
same,"RLU, fluorescence trace","Time (s) 60.781 (TCA, TLCA: 60.782)",261.6 RLU
same,"RLU, fluorescence trace","Time (s) 62.781 (TCA, TLCA: 62.782)",251.574 RLU
same,"RLU, fluorescence trace","Time (s) 64.781 (TCA, TLCA: 64.782)",292.569 RLU
same,"RLU, fluorescence trace","Time (s) 66.781 (TCA, TLCA: 66.782)",280.396 RLU
same,"RLU, fluorescence trace","Time (s) 68.781 (TCA, TLCA: 68.782)",265.03 RLU
same,"RLU, fluorescence trace","Time (s) 70.781 (TCA, TLCA: 70.782)",284.572 RLU
same,"RLU, fluorescence trace","Time (s) 72.781 (TCA, TLCA: 72.782)",284.878 RLU
same,"RLU, fluorescence trace","Time (s) 74.781 (TCA, TLCA: 74.782)",290.176 RLU
same,"RLU, fluorescence trace","Time (s) 76.781 (TCA, TLCA: 76.782)",292.885 RLU
same,"RLU, fluorescence trace","Time (s) 78.781 (TCA, TLCA: 78.782)",302.496 RLU
same,"RLU, fluorescence trace","Time (s) 80.781 (TCA, TLCA: 80.782)",299.577 RLU
same,"RLU, fluorescence trace","Time (s) 82.781 (TCA, TLCA: 82.782)",289.637 RLU
same,"RLU, fluorescence trace","Time (s) 84.781 (TCA, TLCA: 84.782)",284.791 RLU
same,"RLU, fluorescence trace","Time (s) 86.781 (TCA, TLCA: 86.782)",284.228 RLU
same,"RLU, fluorescence trace","Time (s) 88.781 (TCA, TLCA: 88.782)",289.096 RLU
same,"RLU, fluorescence trace","Time (s) 90.781 (TCA, TLCA: 90.782)",288.658 RLU
same,"RLU, fluorescence trace","Time (s) 92.781 (TCA, TLCA: 92.782)",295.597 RLU
same,"RLU, fluorescence trace","Time (s) 94.781 (TCA, TLCA: 94.782)",300.252 RLU
same,"RLU, fluorescence trace","Time (s) 96.781 (TCA, TLCA: 96.782)",303.134 RLU
same,"RLU, fluorescence trace","Time (s) 98.781 (TCA, TLCA: 98.782)",268.467 RLU
same,"RLU, fluorescence trace","Time (s) 100.781 (TCA, TLCA: 100.782)",282.827 RLU
same,"RLU, fluorescence trace","Time (s) 102.781 (TCA, TLCA: 102.782)",280.287 RLU
same,"RLU, fluorescence trace","Time (s) 104.781 (TCA, TLCA: 104.782)",297.596 RLU
same,"RLU, fluorescence trace","Time (s) 106.781 (TCA, TLCA: 106.782)",261.785 RLU
same,"RLU, fluorescence trace","Time (s) 108.781 (TCA, TLCA: 108.782)",279.776 RLU
same,"RLU, fluorescence trace","Time (s) 110.781 (TCA, TLCA: 110.782)",253.834 RLU
same,"RLU, fluorescence trace","Time (s) 112.781 (TCA, TLCA: 112.782)",272.21 RLU
same,"RLU, fluorescence trace","Time (s) 114.781 (TCA, TLCA: 114.782)",268.219 RLU
same,"RLU, fluorescence trace","Time (s) 116.781 (TCA, TLCA: 116.782)",268.998 RLU
same,"RLU, fluorescence trace","Time (s) 118.781 (TCA, TLCA: 118.782)",262.891 RLU
same,"RLU, fluorescence trace","Time (s) 120.781 (TCA, TLCA: 120.782)",267.293 RLU
same,"RLU, fluorescence trace","Time (s) 122.781 (TCA, TLCA: 122.782)",280.896 RLU
same,"RLU, fluorescence trace","Time (s) 124.781 (TCA, TLCA: 124.782)",273.898 RLU
same,"RLU, fluorescence trace","Time (s) 126.781 (TCA, TLCA: 126.782)",249.374 RLU
same,"RLU, fluorescence trace","Time (s) 128.781 (TCA, TLCA: 128.782)",270.269 RLU
same,"RLU, fluorescence trace","Time (s) 130.781 (TCA, TLCA: 130.782)",267.674 RLU
same,"RLU, fluorescence trace","Time (s) 132.781 (TCA, TLCA: 132.782)",259.914 RLU
same,"RLU, fluorescence trace","Time (s) 134.781 (TCA, TLCA: 134.782)",243.112 RLU
same,"RLU, fluorescence trace","Time (s) 136.781 (TCA, TLCA: 136.782)",250.545 RLU
same,"RLU, fluorescence trace",Time (s) 137.547,251.257 RLU
same,"RLU, fluorescence trace",Time (s) 143.547,215.734 RLU
same,"RLU, fluorescence trace",Time (s) 149.547,237.866 RLU
same,"RLU, fluorescence trace",Time (s) 155.547,193.672 RLU
same,"RLU, fluorescence trace",Time (s) 161.547,207.578 RLU
same,"RLU, fluorescence trace",Time (s) 167.547,205.902 RLU
same,"RLU, fluorescence trace",Time (s) 173.547,204.036 RLU
same,"RLU, fluorescence trace",Time (s) 179.547,180.442 RLU
same,"RLU, fluorescence trace",Time (s) 185.547,185.763 RLU
same,"RLU, fluorescence trace",Time (s) 191.547,137.563 RLU
same,"RLU, fluorescence trace",Time (s) 197.547,147.254 RLU
same,"RLU, fluorescence trace",Time (s) 203.547,133.472 RLU
same,"RLU, fluorescence trace",Time (s) 209.547,90.5191 RLU
same,"RLU, fluorescence trace",Time (s) 215.547,65.3811 RLU
same,"RLU, fluorescence trace",Time (s) 221.547,77.9879 RLU
same,"RLU, fluorescence trace",Time (s) 227.547,99.7214 RLU
same,"RLU, fluorescence trace",Time (s) 233.547,126.783 RLU
same,"RLU, fluorescence trace",Time (s) 239.547,132.165 RLU
same,"RLU, fluorescence trace",Time (s) 245.547,104.275 RLU
same,"RLU, fluorescence trace",Time (s) 293.547,136.191 RLU
same,"RLU, fluorescence trace",Time (s) 299.547,118.82 RLU
same,"RLU, fluorescence trace",Time (s) 305.547,140.647 RLU
same,"RLU, fluorescence trace",Time (s) 311.547,122.148 RLU
same,"RLU, fluorescence trace",Time (s) 317.547,88.8315 RLU
same,"RLU, fluorescence trace",Time (s) 323.547,111.642 RLU
same,"RLU, fluorescence trace",Time (s) 329.547,124.756 RLU
same,"RLU, fluorescence trace",Time (s) 335.547,109.477 RLU
same,"RLU, fluorescence trace",Time (s) 341.547,98.825 RLU
same,"RLU, fluorescence trace",Time (s) 347.547,92.346 RLU
same,"RLU, fluorescence trace",Time (s) 353.547,124.878 RLU
same,"RLU, fluorescence trace",Time (s) 359.547,119.545 RLU
same,Activation threshold concentration TAS2R4,lowest concentration with significantly increased fluorescence vs empty vector (p < 0.01),1 µM
